These are literature values, as cited in patent publication US10358435B2, “Triazolyl pyrimidinone compounds as PDE2 inhibitors” (Merck Sharp & Dohme Corp., priority 2015, dated 2019).

One data set concerns other PDE isoforms. The conditions noted are these: reported in Brandon et al. 2007; cited from earlier work.
For data set [1] the following is noted: reported in Brandon et al. 2007; cited from earlier work.

As for `COc1ccc(Cc2nn3c([C@@H](CCCc4ccccc4)[C@@H](C)O)nc(C)c3c(=O)[nH]2)cc1OC` [Bay 60-7550], the “potency at other PDE isoforms” value with other PDE isoforms is on record as “significant potency”. For the same compound, the brain penetration result in data set [1] is listed as “limited brain penetration”.
